Assay [1] relates to transgenic potato plants (CGS+). As to the kind of experiment: Resistance to ethionine in CGS+ transgenic potato plants (growth on maintenance medium with ethionine). The class given is in vivo, Russet Burbank potato. The procedure:
(§1) Inaba, et al. used 100 μM ethionine, the toxic analogue of methionine to select Arabidopsis thaliana mutants that overaccumulated methionine. We tested the effects of ethionine on the growth of transgenic potato plants by incorporating ethionine into the maintenance medium. Several concentrations of ethionine, 10, 25, 50, 100, 200, 300 μM were tested initially using wild-type potato plants.

Another assay deals with wild-type potato plants. As to the kind of experiment: Effect of ethionine in the maintenance medium on growth of wild-type potato plants. Format: in vivo, Russet Burbank potato. The procedure:
as §1

[2] abbreviates: ethionine 10 μM in maintenance medium.

Molecules are shown by their SMILES.

Consider `CCSCC[C@H](N)C(=O)O` [ethionine], for which the “growth of transgenic potato plants” value in assay [1] (setting [2]) was “continued to grow”; in assay [1] (ethionine 25 and 50 μM in maintenance medium), “only CGS4 and CGS8 had limited growth of roots”. The “root initiation of transgenic potato plants” value in assay [1] (setting [2]) is “all transgenic plants initiated roots in three days”. In addition, the “growth of wild-type potato plants” value in the assay with wild-type potato plants (setting [2]) is reported as “growth of wild-type plants were inhibited”; in the assay on wild-type potato plants (ethionine 50 μM and higher (10, 25, 50, 100, 200, 300 μM tested) in maintenance medium), “total inhibition of growth”.

Values taken from US20050039231A1, “Method for selecting transformed plant cells using ethionine and cystathionine gamma synthase as the selection agent and marker gene” (Rutgers, The State University, priority 1999, published 2005).
